We go through five molecules from patent EP4775036A2, “SYNERGISTIC FORMULATIONS FOR CONTROL AND REPELLENCY OF BITING ARTHROPODS” (Bedoukian Research, Inc., priority 2020, dated 2022).

Each structure is given as a SMILES string. Several values for one entry are separate records, joined by “and”; a condition that tells them apart may be missing. Equal entries are not always repeated.

For one assay, the system named is Aedes aegypti mosquitoes. Nature of the assay: Arm in cage testing (Modified WHO - Nigel Hill protocol), dose response curves on human subjects, LDP line analysis. The settings on record: for Index: ED50 comparison of LDP lines, lowest ED50 = 100; for RR: ED50 relative to the line with the lowest ED50. It counts as in vivo. On the procedure: A Modified WHO - Nigel Hill protocol was used for Dose Response curve generation. Three concurrent repetitions were conducted with 4 subjects (2 male, 2 female). Approximately 60 non blood-fed, female Aedes aegypti mosquitoes were placed in a 12"X12"X12" (28316.85 cm^3) plexi and screen cage.
Arms were inserted into the first cage for 30 seconds, with number of landings (with intent to bite) recorded at the end of the time interval. The same procedure was used for the 2nd and 3rd cage in succession. Control arm was inserted first, followed by the opposite arm treated with ethanol only (as a treatment control). The 'treatment arm' is then treated with dose 1 and inserted, then dose 2, dose 3, and so on. After complete protection was achieved, control arm was reinserted to verify continued activity.
Percent repellency was calculated by utilizing the formula [{(C-T)/C}*100]. Where C = the number of mosquitoes landing with intent to bite on the ethanol only treated arm, and T = the number of mosquitoes landing with intent to bite on the 'repellent' treated arm. LDP line® software (Bakr, E 2007) was used to determine ED50 (effective dose to repel 50%) and compare materials.
Following the Definition of Synergy (the interaction or cooperation of two or more organizations, substances, or other agents to produce a combined effect greater than the sum of their separate effects), an 'additive measure' was used to determine synergy in the laboratory testing, as well as in the human testing. […] Significance was determined by the use of 95% confidence intervals.
For human testing, the LDP Line software was used to determine "additive repellency" differences.

The subject of another assay is Aedes aegypti. Nature of the assay: Laboratory screening, modified K & D chamber (Gupta Box), treated blood-filled membrane wells. The format is in vivo. The conditions noted are these: adjusted, relative to control. The protocol: A modified K & D chamber or "Gupta Box" was used to screen 4 compounds plus an untreated control, simultaneously. Five replicates of 250 adult female mosquitoes each were placed in clear plastic cages (Gupta boxes) with access to five warmed, blood-filled, membrane-covered wells. The mosquitoes used were Aedes aegypti. Membranes were treated with repellent dilutions or diluent only. Five replicates were tested, rotating positions within the chamber. Each replicate used a fresh batch of mosquitoes, blood and treated membranes. The number of mosquitoes probing each well was recorded at two minute intervals for 20 minutes. The total numbers of probes on each well were tallied at the end of the observation period and the average percentage repellency relative to the control was calculated for each formulation. To compare formulations from different tests, the control probes were adjusted to 100 for each test and the formula then applied to each formulation to adjust accordingly. For laboratory testing, additive repellency was determined by adding the adjusted percent repellency for each dose used in the combination treatment. This "Expected additive repellency" was then compared to the "actual repellency" seen when the combination was tested in the Gupta box.

[1] abbreviates: human arm in cage, compound alone.
[2] abbreviates: DEET Combinations, calculations based on DEET dose.
[3] abbreviates: human arm in cage, DEET dose, DEET alone or in the combination (calculations based on DEET dosage).
[4] abbreviates: 0.5% of the compound alone on membrane.
[5] abbreviates: 1% of the compound alone on membrane.
Setting [6] is: PMD Combinations, calculations based on PMD dose.
Where [7] appears, read: human arm in cage, PMD dose, PMD alone or in the combination (calculations based on PMD dosage).

For the molecule `CC(O)C(=O)O` (centres unmarked) [Lactic Acid, Lactic acid], the “% Repelled” value in the assay on Aedes aegypti mosquitoes (Lactic Acid alone at Dose 2.7938 % Active (its ED25)) is recorded as 25%. In the assay with Aedes aegypti mosquitoes (setting [1]), the “ED25, Dose (% Lactic Acid)” value is 2.794 % Lactic Acid; the “ED50, Dose (% Lactic Acid)” value is given as 6.143 % Lactic Acid; the “ED75, Dose (% Lactic Acid)” value came to 13.51 % Lactic Acid; the “ED90, Dose (% Lactic Acid)” value came out at 27.45 % Lactic Acid. Also, the “ED95, Dose (% Lactic Acid)” value in the assay on Aedes aegypti mosquitoes (setting [1]) was 41.96 % Lactic Acid.
For `CCN(CC)C(=O)c1cccc(C)c1` [DEET, N,N-Diethyl-m-toluamide], in the assay with Aedes aegypti mosquitoes (setting [2]), the “ED90 (%AI)” value is listed as 1.443 %AI, the Index is reported as 10.32 and the RR is reported as 9.69. For the same molecule, the “% Repelled” value in the assay on Aedes aegypti mosquitoes (DEET alone at Dose 0.0351 % Active (its ED25)) was determined as 25%. Also, in the assay on Aedes aegypti mosquitoes (setting [3]), the “ED25, Dose (% DEET)” value was 0.035 % DEET and 0.0351 % DEET; the “ED50, Dose (% DEET)” value is 0.1263 % DEET and 0.126 % DEET; the “ED75, Dose (% DEET)” value was 0.4552 % DEET; the “ED90, Dose (% DEET)” value is recorded as 1.4431 % DEET. Also, in the assay on Aedes aegypti mosquitoes (setting [3]), the “ED95, Dose (% DEET)” value was 2.8783 % DEET. In addition, the percent repellency with Aedes aegypti (setting [4]) stood at 29.55%. In addition, the percent repellency in the assay on Aedes aegypti (setting [5]) is 52.9%.
As for `CC1CCC(C(C)(C)O)C(O)C1` (centres unmarked) [PMD, para-menthane-3,8-diol], in the assay with Aedes aegypti mosquitoes (setting [6]), the “ED90 (%AI)” value is reported as 3.846 %AI, the Index is 4.36 and the RR was 22.94. For the same molecule, in the assay with Aedes aegypti mosquitoes (PMD alone at Dose 0.1275 % Active (its ED25)), the “% Repelled” value is listed as 25%. For the same molecule, in the assay on Aedes aegypti mosquitoes (setting [7]), the “ED25, Dose (% PMD)” value is 0.128 % PMD and 0.1275 % PMD; the “ED50, Dose (% PMD)” value was 0.4128 % PMD and 0.413 % PMD; the “ED75, Dose (% PMD)” value is 1.3362 % PMD; the “ED90, Dose (% PMD)” value is 3.8464 % PMD. For the same molecule, the “ED95, Dose (% PMD)” value in the assay with Aedes aegypti mosquitoes (setting [7]) is 7.2415 % PMD. Further, in the assay with Aedes aegypti (setting [5]), the percent repellency was 26.35% and 26.4%. In the assay on Aedes aegypti (1.5% of the compound alone on membrane), the percent repellency is reported as 34.6%.
For the molecule `CCCCCCCCC1CCC(=O)O1` (centres unmarked) [Gamma Dodecalactone, gamma-dodecalactone], in the assay on Aedes aegypti mosquitoes (Gamma Dodecalactone alone at Dose 0.4177 % Active (its ED25)), the “% Repelled” value is 25%. Further, in the assay on Aedes aegypti mosquitoes (setting [1]), the “ED25, Dose (% γ Dodecalactone)” value is 0.4177 % γ Dodecalactone; the “ED50, Dose (% γ Dodecalactone)” value was determined as 1.8022 % γ Dodecalactone; the “ED75, Dose (% γ Dodecalactone)” value was 7.7764 % γ Dodecalactone; the “ED90, Dose (% γ Dodecalactone)” value is on record as 28.994 % γ Dodecalactone. Also, the “ED95, Dose (% γ Dodecalactone)” value in the assay on Aedes aegypti mosquitoes (setting [1]) is listed as 63.726 % γ Dodecalactone.
With `CC(=O)CCC=C(C)CCC=C(C)C` [Geranyl Acetone, 6,10-dimethyl-5,9-undecadien-2-one], the “% Repelled” value with Aedes aegypti mosquitoes (Geranyl Acetone alone at Dose 0.736 % Active (its ED25)) is 25%. Moreover, in the assay on Aedes aegypti mosquitoes (setting [1]), the “ED25, Dose (% Geranyl Acetone)” value worked out at 0.736 % Geranyl Acetone; the “ED50, Dose (% Geranyl Acetone)” value came to 2.831 % Geranyl Acetone; the “ED75, Dose (% Geranyl Acetone)” value is 10.889 % Geranyl Acetone; the “ED90, Dose (% Geranyl Acetone)” value was found to be 36.608 % Geranyl Acetone. Also, the “ED95, Dose (% Geranyl Acetone)” value in the assay on Aedes aegypti mosquitoes (setting [1]) came to 75.631 % Geranyl Acetone. For the same molecule, the percent repellency with Aedes aegypti (setting [4]) is 26.7% and 26.69%.
